Results on three compounds are retold here after US20240384350A1, “METHODS OF TREATING CANCER WITH KINASE INHIBITORS” (BOARD OF REGENTS, THE UNIVERSITY OF TEXAS SYSTEM, priority 2021, published 2024).

What all share (test): Ba/F3 drug screening, Cell Titer Glo, IC50 Mut/WT
Format in all cases: cell-based
(In general: Cellular ATP, detected with luciferase, serves as a proxy for viable cell number.)

One test deals with T1, EGFR L747S (Homo sapiens, UniProt P00533, L747S).
T1 construct: expressed in transfected cells; host or cells: Ba/F3
The conditions noted are these: for ratio of the IC50 value for cells with a PACC EGFR mutation to the IC50 value for cells with wildtype EGFR: Ba/F3 cells, EGFR L747S (PACC), Mut/WT.

A further test addresses T2, EGFR V769L (Homo sapiens, UniProt P00533, V769L).
T2 construct: expressed in transfected cells; host or cells: Ba/F3
The note with it: for ratio of the IC50 value for cells with a PACC EGFR mutation to the IC50 value for cells with wildtype EGFR: Ba/F3 cells, EGFR V769L (PACC), Mut/WT.

The next test has as its target T3, EGFR K757R (Homo sapiens, UniProt P00533, K757R).
T3 construct: expressed in transfected cells; host or cells: Ba/F3
The note with it: for ratio of the IC50 value for cells with a PACC EGFR mutation to the IC50 value for cells with wildtype EGFR: Ba/F3 cells, EGFR K757R (PACC), Mut/WT.

In another test the target is T4, EGFR G719A T790M (Homo sapiens, UniProt P00533, G719A/T790M).
T4 construct: expressed in transfected cells; host or cells: Ba/F3
The note with it: T790M-like-3S, 72 hours.

The next test addresses T5, EGFR D761N (Homo sapiens, UniProt P00533, D761N).
T5 construct: expressed in transfected cells; host or cells: Ba/F3 cells, retroviral pBabe-Puro vector
The conditions noted are these: Classical-Like, 72 hours.

A further test has as its target T6, EGFR Ex19del L718Q (Homo sapiens, UniProt P00533, DEL746-750/L718Q).
T6 construct: expressed in transfected cells; host or cells: Ba/F3
The note with it: for ratio of the IC50 value for cells with a PACC EGFR mutation to the IC50 value for cells with wildtype EGFR: Ba/F3 cells, EGFR Ex19del L718Q (PACC), Mut/WT.

The target in a further test is T7, EGFR L858R/T790M/C797S (Homo sapiens, UniProt P00533, C797S/L858R/T790M).
T7 construct: expressed in transfected cells; host or cells: Ba/F3
The note with it: T790M-like-3R, 72 hours.

For a further test, the target named is T8, EGFR Ex19del G796S (Homo sapiens, UniProt P00533, DEL746-750/G796S).
T8 construct: expressed in transfected cells; host or cells: Ba/F3
The conditions noted are these: for ratio of the IC50 value for cells with a PACC EGFR mutation to the IC50 value for cells with wildtype EGFR: Ba/F3 cells, EGFR Ex19del G796S (PACC), Mut/WT.

Another test concerns the target T9, EGFR Ex19del G724S (Homo sapiens, UniProt P00533, DEL746-750/G724S).
T9 construct: expressed in transfected cells; host or cells: Ba/F3
The note with it: for ratio of the IC50 value for cells with a PACC EGFR mutation to the IC50 value for cells with wildtype EGFR: Ba/F3 cells, EGFR Ex19del G724S (PACC), Mut/WT.

A further test deals with T10, EGFR L858R T790M V843I (Homo sapiens, UniProt P00533, L858R/T790M/V843I).
T10 construct: expressed in transfected cells; host or cells: Ba/F3
The note with it: T790M-like-3S, 72 hours.

Another test has as its target T11, EGFR L858R/T790M/L718Q (Homo sapiens, UniProt P00533, L718Q/L858R/T790M).
T11 construct: expressed in transfected cells; host or cells: Ba/F3
The conditions noted are these: T790M-like-3R, 72 hours.

A further test has as its target T12, EGFR E709K (Homo sapiens, UniProt P00533, E709K).
T12 construct: expressed in transfected cells; host or cells: Ba/F3
The note with it: for ratio of the IC50 value for cells with a PACC EGFR mutation to the IC50 value for cells with wildtype EGFR: Ba/F3 cells, EGFR E709K (PACC), Mut/WT.

The target of the next test is T13, EGFR Ex19del/L792H (Homo sapiens, UniProt P00533, DEL746-750/L792H).
T13 construct: expressed in transfected cells; host or cells: Ba/F3
The note with it: for ratio of the IC50 value for cells with a PACC EGFR mutation to the IC50 value for cells with wildtype EGFR: Ba/F3 cells, EGFR Ex19del/L792H (PACC), Mut/WT.

The target of a further test is T14, EGFR Ex19del T854I (Homo sapiens, UniProt P00533, DEL746-750/T854I).
T14 construct: expressed in transfected cells; host or cells: Ba/F3 (retroviral transduction, pBabe-Puro based vectors)
The conditions noted are these: for ratio of the IC50 value for cells with a PACC EGFR mutation to the IC50 value for cells with wildtype EGFR: Ba/F3 cells, EGFR Ex19del T854I (PACC), Mut/WT.

The target of the next test is T15, EGFR L861R (Homo sapiens, UniProt P00533, L861R).
T15 construct: expressed in transfected cells; host or cells: Ba/F3 cells, retroviral pBabe-Puro vector (vector made by GeneScript from EGFR WT)
The conditions noted are these: Classical-Like, 72 hours.

Another test deals with T16, EGFR T725M (Homo sapiens, UniProt P00533, T725M).
T16 construct: expressed in transfected cells; host or cells: Ba/F3 cells, retroviral pBabe-Puro vector (vector made by GeneScript from EGFR WT)
The note with it: Classical-Like, 72 hours.

A further test addresses T17, EGFR A767insASV (Homo sapiens, UniProt P00533, DUP767-769).
T17 construct: expressed in transfected cells; host or cells: Ba/F3 cells, retroviral pBabe-Puro vector
The conditions noted are these: Ex20, 72 hours.

The target in another test is T18, EGFR S784F (Homo sapiens, UniProt P00533, S784F).
T18 construct: expressed in transfected cells; host or cells: Ba/F3 cells, retroviral pBabe-Puro vector (vector made by GeneScript from EGFR WT)
The note with it: Classical-Like, 72 hours.

In another test the target is T19, EGFR L833V (Homo sapiens, UniProt P00533, L833V).
T19 construct: expressed in transfected cells; host or cells: Ba/F3 cells, retroviral pBabe-Puro vector
The conditions noted are these: Classical-Like, 72 hours.

A further test has as its target T20, EGFR L858R G724S (Homo sapiens, UniProt P00533, G724S/L858R).
T20 construct: expressed in transfected cells; host or cells: Ba/F3 (retroviral transduction, pBabe-Puro based vectors)
The conditions noted are these: for ratio of the IC50 value for cells with a PACC EGFR mutation to the IC50 value for cells with wildtype EGFR: Ba/F3 cells, EGFR L858R G724S (PACC), Mut/WT.

The target of another test is T21, EGFR E709A (Homo sapiens, UniProt P00533, E709A).
T21 construct: expressed in transfected cells; host or cells: Ba/F3
The note with it: for ratio of the IC50 value for cells with a PACC EGFR mutation to the IC50 value for cells with wildtype EGFR: Ba/F3 cells, EGFR E709A (PACC), Mut/WT.

Another test deals with T22, EGFR S768dupSVD V769M (Homo sapiens, UniProt P00533, INS768MDS/V769M).
T22 construct: expressed in transfected cells; host or cells: Ba/F3 cells, retroviral pBabe-Puro vector (vector made by GeneScript from EGFR S768dupSVD, c.2305G > A)
The note with it: Ex20, 72 hours.

In the next test the target is T23, EGFR Ex19del L718V (Homo sapiens, UniProt P00533, DEL746-750/L718V).
T23 construct: expressed in transfected cells; host or cells: Ba/F3
The note with it: for ratio of the IC50 value for cells with a PACC EGFR mutation to the IC50 value for cells with wildtype EGFR: Ba/F3 cells, EGFR Ex19del L718V (PACC), Mut/WT.

Each structure is given as a SMILES string.

As to `C=CC(=O)Nc1cc(Nc2nccc(-n3cc(CN(C)C)c(-c4ccccc4)n3)n2)c(OC)cc1N1CCOCC1` [Lazertinib], the “ratio of the IC50 value for cells with a PACC EGFR mutation to the IC50 value for cells with wildtype EGFR” value (from here on “ratio of the IC50 value for cells”) on EGFR L747S came out at 1.007; at EGFR V769L, 1.618; on EGFR K757R, 0.349; at EGFR Ex19del L718Q it was 0.08238; at EGFR Ex19del G796S, 1.423; at EGFR Ex19del G724S it was 1.782. The “ratio of the IC50 value for cells” value on EGFR E709K came to 0.2612; on EGFR Ex19del/L792H it was 0.001792; at EGFR Ex19del T854I it was 1.44; at EGFR L858R G724S, 0.0004647; at EGFR E709A it was 0.2759; at EGFR Ex19del L718V, 0.04944. Besides, the “ratio of IC50 for cells with mutant EGFR to IC50 for cells with wildtype EGFR (Mut/WT)” value (from here on “ratio of IC50 for cells with mutant EGFR”) on EGFR G719A T790M came to 0.00108; at EGFR D761N it was 0.01957; at EGFR L858R/T790M/C797S it was 23.29; on EGFR L858R T790M V843I, 0.06612; on EGFR L858R/T790M/L718Q it was 11.87; on EGFR L861R it was 0.05091. In addition, the “ratio of IC50 for cells with mutant EGFR” value on EGFR T725M turned out to be 0.004466; at EGFR A767insASV, 10.93; on EGFR S784F it was 0.245; at EGFR L833V, 0.006132; at EGFR S768dupSVD V769M, 2.831.
Regarding `C=CC(=O)Nc1cc(Nc2nccc(-c3c[nH]c4ccccc34)n2)c(OC)cc1N(C)CCN(C)C` [AZ5104], the “ratio of the IC50 value for cells” value came to 4.201 on EGFR L747S; 1.367 at EGFR V769L; 0.1894 at EGFR K757R; 1.487 on EGFR Ex19del L718Q; 0.8807 at EGFR Ex19del G796S; 3.178 on EGFR Ex19del G724S. Also, the “ratio of the IC50 value for cells” value on EGFR E709K was 0.207; on EGFR Ex19del/L792H, 1.778; at EGFR Ex19del T854I it was 1.699; at EGFR L858R G724S it was 0.001759; at EGFR E709A, 0.219; on EGFR Ex19del L718V it was 1.339. The “ratio of IC50 for cells with mutant EGFR” value is on record as 0.1667 at EGFR G719A T790M; 0.3285 on EGFR D761N; 78.11 at EGFR L858R/T790M/C797S; 0.6934 at EGFR L858R T790M V843I; 29.86 at EGFR L858R/T790M/L718Q; 0.2335 on EGFR L861R. Moreover, the “ratio of IC50 for cells with mutant EGFR” value on EGFR T725M is given as 0.959; at EGFR A767insASV, 4.661; on EGFR S784F, 0.01428; on EGFR L833V, 0.4446; on EGFR S768dupSVD V769M it was 0.3864.
Turning to `CN(C)C/C=C/C(=O)Nc1cc2c(Nc3ccc(Cl)c(Br)c3)ncnc2cn1` [Tarlox-TKI], the “ratio of IC50 for cells with mutant EGFR” value at EGFR L747S (PACC, L747S, Ba/F3, 72 hours) is listed as 0.1733; on EGFR V769L (PACC, V769L, Ba/F3, 72 hours), 0.3024; at EGFR K757R (PACC, K757R, Ba/F3, 72 hours) it was 0.3019; at EGFR G719A T790M, 0.6778; on EGFR D761N it was 0.1319; on EGFR Ex19del L718Q (PACC, Ex19del L718Q, Ba/F3, 72 hours), 0.09651. Also, the “ratio of IC50 for cells with mutant EGFR” value on EGFR L858R/T790M/C797S is recorded as 20.7; at EGFR Ex19del G796S (PACC, Ex19del G796S, Ba/F3, 72 hours) it was 25.15; on EGFR Ex19del G724S (PACC, Ex19del G724S, Ba/F3, 72 hours), 2.658; at EGFR L858R T790M V843I, 70.97; on EGFR L858R/T790M/L718Q, 304.5; at EGFR E709K (PACC, E709K, Ba/F3, 72 hours) it was 0.03467. The “ratio of IC50 for cells with mutant EGFR” value on EGFR Ex19del/L792H (PACC, Ex19del/L792H, Ba/F3, 72 hours) turned out to be 1.041; at EGFR Ex19del T854I (PACC, Ex19del T854I, Ba/F3, 72 hours), 0.7019; on EGFR L861R, 0.01926; at EGFR T725M, 0.004861; on EGFR A767insASV, 0.9945; on EGFR S784F it was 0.01816. In addition, the “ratio of IC50 for cells with mutant EGFR” value on EGFR L833V is recorded as 0.003152; at EGFR L858R G724S (PACC, L858R G724S, Ba/F3, 72 hours), 0.02628; at EGFR E709A (PACC, E709A, Ba/F3, 72 hours), 0.4803; on EGFR S768dupSVD V769M, 0.33; on EGFR Ex19del L718V (PACC, Ex19del L718V, Ba/F3, 72 hours), 0.1214.
